In patent publication US20250059227A1, “ARTIFICIAL NUCLEIC ACID, METHOD FOR PRODUCING SAME, AND USE OF SAME” (RIKEN GENESIS CO., LTD., priority 2021, published 2025):
[NMe] = code of the source, not defined here; [(B)β] = from compound B-13; [(C)Hβ] = from compound C-8; d = 2'-deoxy (DNA)

What was measured:
[1] = test system: single-stranded DNA (5′-d(agcaaaaaacgc)-3′; SEQ ID NO: 7) (a sense strand); experiment: Melting temperature (Tm), capability of forming double strand with single-stranded DNA; assay type: binding; details: for capability of forming a double strand with single-stranded DNA versus single-stranded RNA: antisense strand as shown in SEQ ID NO: 1, modified with one base; for Tm: pH 7.2
[2] = test system: single-stranded RNA (5′-r(agcaaaaaacgc)-3′; SEQ ID NO: 8) (a sense strand); assay type: binding; details: pH 7.2

Substance | capability of forming a double strand with single-stranded DNA versus single-stranded RNA [1] | Tm [1] | Tm [2]
5′-d(gcgttxtttgct)-3′ x = (B)β-T: (B)β-T modified oligonucleotide, antisense 12-mer DNA (SEQ ID NO: 1), one x = (B)β-T unit from compound B-13 (antisense GCGTTTTTTGCT; sugars from the 5' end d5 [(B)β]1 d6, backbone not given here) | superior capability of forming a double strand together with single-stranded DNA over single-stranded RNA | – | –
5′-d(gcgttxtttgct)-3′ x = (C)Hβ-T: (C)Hβ-T modified oligonucleotide, antisense 12-mer DNA (SEQ ID NO: 1), one x = (C)Hβ-T unit from compound C-8 (antisense GCGTTTTTTGCT; sugars from the 5' end d5 [(C)Hβ]1 d6, backbone not given here) | superior capability of forming a double strand together with single-stranded DNA over single-stranded RNA | – | –
5′-d(gcgtxxxttgct)-3′ x = NMe-T: reference antisense 12-mer (SEQ ID NO: 3); three x = formula (9) unit, Base thymin-1-yl, R^b Me (antisense GCGTTTTTTGCT; sugars from the 5' end d4 [NMe]3 d5, backbone and methylation of C not given here) | – | 51 °C | 60 °C
5′-d(gcgxtxtxtgct)-3′ x = NMe-T: reference antisense 12-mer (SEQ ID NO: 2); three x = formula (9) unit, Base thymin-1-yl, R^b Me (antisense GCGTTTTTTGCT; sugars from the 5' end ddd[NMe]d[NMe]d[NMe]dddd, backbone and methylation of C not given here) | – | 52 °C | 64 °C
